Patent US8791132B2, “Compounds and methods for treatment of hypertension” (Medivation Technologies, Inc., priority 2011, dated 2014)
Like-named read-outs stand apart in the source and are kept apart here.

Key:
[1] = molecular target: T1, human recombinant adrenergic α2B receptor (Homo sapiens, UniProt P18089); test: Radioligand binding, adrenergic α2B ([3H]Rauwolscine); settings: for Ki: read-out: Ki α2B; for inhibition at 0.03 µM: read-out: Percentage inhibition of ligand binding, Adrenergic α2B (0.03 μM), compound at 0.03 μM; for Percentage inhibition of ligand binding, Adrenergic α2B (0.03 μM): compound at 0.03 μM; for Percentage inhibition of ligand binding, Adrenergic α2B: 0.03 μM compound; for Percentage inhibition of ligand binding, Adrenergic α2B (0.03 μM) / Percentage inhibition of ligand binding, Adrenergic α2B: 0.03 µM
T1 construct: expressed in transfected cells; host or cells: CHO-K1
T1 sequence (P18089 1-450): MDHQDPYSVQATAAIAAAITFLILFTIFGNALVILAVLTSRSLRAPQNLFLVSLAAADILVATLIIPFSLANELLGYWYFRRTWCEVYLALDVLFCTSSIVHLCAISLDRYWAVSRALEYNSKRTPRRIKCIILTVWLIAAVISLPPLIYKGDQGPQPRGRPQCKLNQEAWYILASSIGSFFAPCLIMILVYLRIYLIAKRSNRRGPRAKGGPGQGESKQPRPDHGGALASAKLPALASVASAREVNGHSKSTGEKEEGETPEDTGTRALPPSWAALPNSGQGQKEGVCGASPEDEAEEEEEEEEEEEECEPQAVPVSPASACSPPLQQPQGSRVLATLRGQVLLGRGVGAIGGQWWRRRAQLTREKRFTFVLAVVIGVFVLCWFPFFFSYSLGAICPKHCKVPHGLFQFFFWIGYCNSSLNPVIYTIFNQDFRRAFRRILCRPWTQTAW
Description: To evaluate in radioligand binding assays the activity of compounds of the invention, human recombinant adrenergic α2B receptor expressed in Chinese hamster ovary (CHO) K1 cells (Uhlen, S. et al, Eur. J. Pharmacol. 343(1):93, 1998) in a modified Tris-HCl buffer (50 mM Tris-HCl, pH 7.4, 12.5 mM MgCl2, 1 mM EDTA, 0.2% BSA) was used. Compounds of the invention were incubated with 2.5 nM [3H]Rauwolscine for 60 min at 25° C. Non-specific binding was estimated in the presence of 10 μM Prazosin. Receptor proteins were filtered and washed, the filters were then counted to determine [3H]Rauwolscine specifically bound. […] Compounds of the invention were tested in this biochemical assay and percent inhibition of specific binding was determined. Biochemical assay results are presented as the percent inhibition of specific binding in Table B1.

[2] = molecular target: T2, human recombinant adrenergic α2A receptor (Homo sapiens, UniProt P08913); test: Radioligand binding, adrenergic α2A ([3H]MK-912); settings: for Percentage inhibition of ligand binding, Adrenergic α2A (0.1 μM): compound at 0.1 μM; for Percentage inhibition of ligand binding, Adrenergic α2A (0.1 μM) / Percentage inhibition of ligand binding, Adrenergic α2A: 0.1 µM
T2 construct: expressed in transfected cells; host or cells: insect Sf9 cells
T2 sequence (P08913 1-465): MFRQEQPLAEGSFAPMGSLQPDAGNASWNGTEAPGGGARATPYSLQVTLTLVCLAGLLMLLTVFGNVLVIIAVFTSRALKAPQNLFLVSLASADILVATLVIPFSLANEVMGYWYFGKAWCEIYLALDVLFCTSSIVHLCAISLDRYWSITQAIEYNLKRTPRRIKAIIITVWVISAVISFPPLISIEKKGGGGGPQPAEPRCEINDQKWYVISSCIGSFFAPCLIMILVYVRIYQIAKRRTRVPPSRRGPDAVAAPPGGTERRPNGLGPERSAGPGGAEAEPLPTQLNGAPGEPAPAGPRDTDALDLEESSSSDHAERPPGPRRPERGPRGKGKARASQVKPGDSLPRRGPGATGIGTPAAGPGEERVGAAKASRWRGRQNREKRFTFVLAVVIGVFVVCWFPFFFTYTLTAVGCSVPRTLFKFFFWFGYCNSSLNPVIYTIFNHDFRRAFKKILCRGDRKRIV
Description: To evaluate in radioligand binding assays the activity of compounds of the invention, human recombinant adrenergic α2A receptor expressed in insect Sf9 cells (Uhlen, S. et al, J. Pharmacol. Exp. Ther. 271:1558, 1994) in a modified Tris-HCl buffer (50 mM Tris-HCl, pH 7.4, 12.5 mM MgCl2, 2 mM EDTA) was used. Compounds of invention were incubated with 1 nM [^3H]MK-912 for 60 min at 25° C. MK912 is (2S-trans)-1,3,4,5′,6,6′,7,12b-octahydro-1′,3′-dimethyl-spiro[2H-benzofuro[2,3-a]quinolizine-2,4′(1′H)-pyrimidin]-2′(3′H)-one hydrochloride. Non-specific binding was estimated in the presence of 10 μM WB-4101 (2-(2,6-Dimethoxyphenoxyethyl)aminomethyl-1,4-benzodioxane hydrochloride). Receptor proteins were filtered and washed, the filters were then counted to determine [^3H]MK-912 specifically bound. […] Compounds of the invention were tested in this biochemical assay and percent inhibition of specific binding was determined. Biochemical assay results are presented as the percent inhibition of specific binding in Table B1.

[3] = [3H]Rauwolscine, repeat datapoints each shown
[4] = read-out: Percentage inhibition of ligand binding, Adrenergic α2A (0.1 μM), compound at 0.1 μM, [3H]MK-912, repeat datapoints each shown
[5] = read-out: Percentage inhibition of ligand binding, Adrenergic α2B (0.1 μM), compound at 0.1 μM, [3H]Rauwolscine, repeat datapoints each shown
[6] = [3H]MK-912, repeat datapoints each shown
[7] = 0.1 μM compound, read-out: Percentage inhibition of ligand binding, Adrenergic α2B

SMILES: Cc1ccc2c(c1)c1c(n2CC(N=[N+]=[N-])c2ccncc2)CCN(C)C1 (racemic) [V-1, 5-(2-azido-2-(pyridin-4-yl)ethyl)-2,3,4,5-tetrahydro-2,8-dimethyl-1H-pyrido[4,3-b]indole]
- Ki [1]: 0.51 nM
- inhibition at 0.03 µM [1, 3]: 102%
- inhibition at 0.1 µM [2, 4]: 35%

SMILES: Cc1ccc2c(c1)c1c(n2C(C)C(O)c2ccncc2)CCN(C)C1 (single isomer, unassigned) [127a]
- Ki [1]: 15.1 nM
- inhibition at 0.03 µM [1, 3]: 43%
- inhibition at 0.1 µM [1, 5]: 74%

SMILES: Cc1cnc2c(c1)c1c(n2CC(O)c2ccc(F)cc2)CCN(C)C1 (single isomer, unassigned) [136b]
- Percentage inhibition of ligand binding, Adrenergic α2B (0.03 μM) [1, 3]: 69%
- Percentage inhibition of ligand binding, Adrenergic α2A (0.1 μM) [2, 6]: 21%

SMILES: Cc1ccc2c(c1)c1c(n2CC(O)c2ccc(C#N)cc2)CCN(C)C1 (single isomer, unassigned) [142b]
- Percentage inhibition of ligand binding, Adrenergic α2A (0.1 μM) [2, 6]: 63%

SMILES: Cc1cnc2c(c1)c1c(n2CC(C)(O)c2ccc(C)nc2)CCN2CCCC12 (single isomer, unassigned) [148d]
- Percentage inhibition of ligand binding, Adrenergic α2B (0.03 μM) [1, 3]: 11%
- Percentage inhibition of ligand binding, Adrenergic α2A (0.1 μM) [2, 6]: −11%

SMILES: Cc1ccc2c(c1)c1c(n2CC(c2ccncc2)N2CCCC2)CCN(C)C1 (single isomer, unassigned) [152a]
- inhibition at 0.1 µM [2, 4]: 17%

SMILES: Cc1ccc2c(c1)c1c(n2CC(N)c2ccncc2)CC2CCC1N2C (single isomer, unassigned) [155a]
- Percentage inhibition of ligand binding, Adrenergic α2A (0.1 μM) [2, 6]: −1%

SMILES: C/C(=C\n1c2c(c3cc(C)ccc31)C1CCCCN1CC2)c1ccc(F)cc1 (single isomer, unassigned) [199a]
- Percentage inhibition of ligand binding, Adrenergic α2B (0.03 μM) [1, 3]: 94%
- Percentage inhibition of ligand binding, Adrenergic α2A (0.1 μM) [2, 6]: 96%

SMILES: C/C(=C\n1c2c(c3cc(C)ccc31)C1CCCCN1CC2)c1ccc(F)cc1 (single isomer, unassigned) [199b]
- Percentage inhibition of ligand binding, Adrenergic α2B (0.03 μM) [1, 3]: 27%
- Percentage inhibition of ligand binding, Adrenergic α2A (0.1 μM) [2, 6]: 61%

SMILES: CN1CCc2c(n(CC(O)c3ccc(F)c(F)c3)c3ccc(Cl)cc23)CC1 (single isomer, unassigned) [339b]
- Percentage inhibition of ligand binding, Adrenergic α2A ([2]; 0.1 μM compound): 64%

SMILES: OCCN1CCc2c(c3cc(Cl)ccc3n2CC(O)c2cccnc2)C1 (single isomer, unassigned) [II-94a]
- Percentage inhibition of ligand binding, Adrenergic α2B [1]: 8%
- Percentage inhibition of ligand binding, Adrenergic α2A ([2]; 0.1 μM compound): 0%

SMILES: Cc1cnc2c(c1)c1c(n2CC(O)c2ccc(C)nc2)CCN(C)C1 (single isomer, unassigned) [II-100a]
- Percentage inhibition of ligand binding, Adrenergic α2B [1]: 12%
- inhibition at 0.1 µM ([2]; 0.1 μM compound, read-out: Percentage inhibition of ligand binding, Adrenergic α2A): 7%

SMILES: CC(O)(Cn1c2c(c3cc(Cl)ccc31)CN(C1CCC1)CC2)c1cccnc1 (single isomer, unassigned) [II-118a]
- Percentage inhibition of ligand binding, Adrenergic α2B (0.03 μM) [1, 3]: 27%
- inhibition at 0.1 µM [2, 4]: 3%

SMILES: Cc1ccc2c(c1)c1c(n2CC(C)(O)c2cccnc2)CCN(C)C1C (single isomer, unassigned) [II-152a]
- Percentage inhibition of ligand binding, Adrenergic α2B (0.03 μM) [1, 3]: 93%

SMILES: C/C(=C\n1c2c(c3cc(C)ccc31)C1CCCN1CC2)c1ccc(C)nc1 (stereo not drawn) [193a, 10-methyl-7-(2-(6-methylpyridin-3-yl)prop-1-enyl)-2,3,5,6,7,11c-hexahydro-1H-indolizino[7,8-b]indole]
- inhibition at 0.03 µM [1, 3]: 98%

SMILES: Cc1ccc2c(c1)c1c(n2CCc2ccc(C(F)(F)F)nc2)C(C)(C)CN(C)C1 [II-40]
- inhibition at 0.1 µM [1, 7]: 36%

SMILES: C/C(=C\n1c2c(c3cc(C)ccc31)CN(C)CC2(C)C)c1ccc(C)nc1 [II-61]
- inhibition at 0.1 µM [1, 7]: 47%

SMILES: C/C(=C\n1c2c(c3cc(C)ccc31)CN(C)CC2(C)C)c1ccncc1 [II-70]
- inhibition at 0.1 µM [1, 7]: 34%

SMILES: C/C(=C\n1c2c(c3cc(C)ccc31)CN(C)CC2)c1cnccc1C [II-76, (E)-2,8-dimethyl-5-(2-(4-methylpyridin-3-yl)prop-1-en-1-yl)-2,3,4,5-tetrahydro-1H-pyrido[4,3-b]indole]
- inhibition at 0.1 µM [1, 7]: 103%

SMILES: OCCN1CCc2c(c3cc(Cl)ccc3n2CC(O)c2ccncc2)C1 (stereo not drawn) [II-93b]
- Percentage inhibition of ligand binding, Adrenergic α2A ([2]; 0.1 μM compound): 4%

SMILES: Cc1ccc2c(c1)c1c(n2C(C)C(O)c2ccncc2)CCN(C)C1 (stereo not drawn) [II-98b]
- Percentage inhibition of ligand binding, Adrenergic α2B [1]: 5%

SMILES: Cc1ccc(CCn2c3c(c4cccnc42)CN(C)CC3(C)C)cn1 [II-133]
- inhibition at 0.1 µM [1, 5]: -5%

SMILES: CN1Cc2c(n(CCc3ccc(C(F)(F)F)nc3)c3ncccc23)C(C)(C)C1 [II-215]
- inhibition at 0.1 µM [1, 5]: -5%

SMILES: FC(F)(F)c1ccc(CCn2c3c(c4cccnc42)CN2CCCC2C3)cn1 (stereo not drawn) [II-236]
- inhibition at 0.1 µM [1, 5]: -4%

SMILES: Cc1cnc2c(c1)c1c(n2CCc2ccc(C(F)(F)F)nc2)CCN2CCCC12 (stereo not drawn) [II-238]
- inhibition at 0.1 µM [1, 5]: 98%

SMILES: Cc1cnc2c(c1)c1c(n2CCc2ccc(C(F)(F)F)nc2)CC2CCCN2C1 (stereo not drawn) [II-239]
- inhibition at 0.1 µM [1, 5]: 17%

SMILES: FC(F)(F)c1ccc(CCn2c3c(c4cccnc42)C2CCCN2CC3)cn1 (stereo not drawn) [IV-2]
- inhibition at 0.1 µM [1, 5]: 50%

SMILES: Cc1ccc2c(c1)c1c(n2CCc2ccccc2F)CCN(C)C1 [compound 204]
- inhibition at 0.1 µM [1, 5]: 107%
- Ki [2]: 2.48 nM
- inhibition at 0.1 µM [2, 4]: 87%

SMILES: Cc1ccc2c(c1)c1c(n2CCC2CCCCC2)CCN(C)C1 [compound 205]
- inhibition at 0.1 µM [1, 5]: 70%
- inhibition at 0.1 µM [2, 4]: 69%

SMILES: CN1CCc2c(c3cc(C(F)(F)F)ccc3n2CCc2ccccc2)C1 [compound 209]
- inhibition at 0.1 µM [1, 5]: 84%
- inhibition at 0.1 µM [2, 4]: 80%

SMILES: Cc1ccc(CCn2c3c(c4cc(C(F)(F)F)ccc42)CN(C)CC3)cc1 [compound 210]
- inhibition at 0.1 µM [1, 5]: 63%
- inhibition at 0.1 µM [2, 4]: 88%

SMILES: CN1CCc2c(c3cc(Cl)ccc3n2CCC2CCCCC2)C1 [compound 212]
- inhibition at 0.1 µM [1, 5]: 64%
- inhibition at 0.1 µM [2, 4]: 66%

SMILES: CN1CCc2c(c3ccc(Cl)cc3n2CCc2ccccc2)C1 [compound 215]
- inhibition at 0.1 µM [1, 5]: 102%
- inhibition at 0.1 µM [2, 4]: 97%
